These results are taken from a melting point compilation (Tetko et al.; mined from patent text by program, amines drawn as free bases though some values may be those of a salt).

A word on the melting point: it is the temperature, or range, at which the solid turns liquid.

SMILES strings stand for the structures. Bounds are passed on as bounds.

For the molecule `CN(C)C(=O)Sc1ccc(Br)cc1C=O`, the melting point lay in the range of 118 to 120 °C.

Turning to `Cc1nc(-c2ccccc2)c(CC(C)(C)C(=O)O)o1`, the melting point is 129 to 130 °C.

The molecule `COC(=O)c1ccc2c(c1)nc(C)n2N` had a melting point of 220 to 222 °C.

In turn, `CN1C(=O)CNC2=C1C=NC(Cl)=CN2c1ccccc1` yielded a melting point of 105 to 107 °C.

`CC(=O)CCc1ccc(C(N)=O)cc1` came in with a melting point of 152 to 154 °C.

As for `COP(=O)(Cc1ccc([N+](=O)[O-])c2ccccc12)OC`, the melting point was in the range of 128 to 129 °C.

The molecule `NC1=C(C(=O)c2ccc(Cl)cc2Cl)OC2N=C(O)C=CC12` (centres undefined) came in with a melting point above 305 °C.

Turning to `NC(=O)CCC/C=C\[C@@H]1C[C@@H](NS(=O)(=O)c2ccc(Cl)cc2)CN1S(=O)(=O)c1ccc(Cl)cc1`, the melting point was 142 to 143 °C.

In turn, `CCOC(=O)c1ccc(-c2ncc(Cl)nc2Cl)cc1` yielded a melting point of 88.5 to 90 °C.

On to `CC(=O)Oc1cc(CNC=C2C(=O)NC(=O)c3ccc(Br)cc32)cc(OC(C)=O)c1`, for which the melting point was 257 to 258 °C.

With `Cc1ccc([N+](=O)[O-])c2c1CCC(C)O2` (centres undefined), the melting point lay in the range of 83 to 85 °C.

`CCON=C(CC)C1=C(OC(=O)c2ccc(Cl)cc2)CC(C)(C)CC1=O`: the melting point lay in the range of 60 to 62 °C.

With `COc1cc(C=CC(=O)c2cccc(F)c2)cc(OC)c1`, the melting point was 89.5 to 90.3 °C.

The molecule `CC(C)(C)OC(=O)NCCNC(=O)c1ccc([N+](=O)[O-])cn1` displayed a melting point of 141 to 142 °C.

For `CSC(C)(C(=O)O)c1cccc(C2(c3ccccc3)OCCO2)c1` (centres undefined), the melting point fell in the range of 118 to 120 °C.

The molecule `CCn1cc(C(=O)O)c(=O)cc1-c1ccc(OC)c(OC)c1` came in with a melting point of 232 to 234 °C.

Turning to `CC(C)(c1ccccc1)c1cccc(S(=O)(=O)NC(CCCNC(=N)N)C(=O)N2CCC(CC(=O)O)CC2)c1` (centres undefined), the melting point was 188 to 191 °C.

Take `OCC1Cn2c(nc3ccccc32)-c2ccccc2O1` (centres undefined): the melting point was in the range of 142 to 144 °C.

In turn, `CC(=O)NCCNC(=O)CCCCC1CCSS1` (centres undefined) returned a melting point of 145 to 146 °C.

As to `CC(Oc1ncn(-c2ccc(C(F)(F)F)cc2)n1)C(=O)N(C)C` (centres undefined), the melting point fell in the range of 102 to 104 °C.

`CCCCCCCCCCCCCCOc1ccc(N)cc1OCCCCCCCCCCCCCC`: the melting point lay in the range of 55 to 58 °C.

`C=CCc1ccc(OCC(O)CO)c(OC)c1` (centres undefined) had a melting point of 77 to 79 °C.

`COc1cccc(OC2CN([C@H]3CC[C@@H](c4cc5cc(C#N)ccc5[nH]4)CC3)C2)c1` had a melting point of 126 to 127 °C.

On to `CCCC(=O)c1cnc2c(OC)cccc2c1Nc1c(C)cc(O)c(O)c1C`, for which the melting point fell in the range of 151 to 153 °C.

In the case of `N#CN1CCC(c2n[nH]c3cc(Cl)ccc23)CC1`, the melting point lay in the range of 180 to 188 °C.

Regarding `CCCCCc1cc2c(nc(O)n2CC2CCN(C(=O)C3CC3)CC2)c(N)n1`, the melting point was in the range of 205 to 207 °C.

As to `CC1(C)CCC(C)(C)c2cc(NC(=O)c3ccc(C=O)cc3)ccc21`, the melting point stood at 186 °C.

The molecule `CCOC(=O)C1=C2COC=CN2C(C)=C(C(=O)OC)C1c1ccccc1Cl` (centres undefined) registered a melting point of 126 to 127 °C.

Turning to `CCOC(=O)NC(=S)Nc1ccc(Br)cn1`, the melting point was 159 to 161 °C.

On to `COc1cc(C=O)cc(C#N)c1OC`, for which the melting point fell in the range of 109 to 112 °C.

In turn, `O=C(O)C1=CC=CC(C(=O)c2ccc(O)c(O)c2)(C(=O)c2ccc(O)c(O)c2)C1` gave a melting point of 254 to 256 °C.

In turn, `CC(=O)c1cccc(C)c1NC(=O)CCBr` registered a melting point of 99 to 101 °C.

As to `Cn1nc(Br)c([N+](=O)[O-])c1Br`, the melting point is 154 °C.

`CN(C)Cc1c(-c2ccccn2)[nH]c2ncnc(Nc3cccc(Cl)c3)c12` came in with a melting point of 247 to 251 °C.

Turning to `Cn1cccc(N)c1=S`, the melting point was 98 to 100 °C.

Consider `CNC(=O)c1cnn(-c2ccc(OC)cc2)c1Cl`, for which the melting point lay in the range of 144 to 146 °C.

`O=S1(=O)CCN2CCCC(c3ccc(C(F)(F)F)cc3)C2=N1` (centres undefined) gave a melting point of 226 to 227 °C.

`CNC(=S)C1=CC2(CCOCC2)Oc2ccc([N+](=O)[O-])cc21` registered a melting point of 223 to 225 °C.

For the molecule `CCOC(=O)C(=CNc1ccc(F)c(SCC)n1)C(=O)OCC`, the melting point lay within 77.5 to 78.5 °C.

In the case of `NC(=O)c1ccccc1-c1n[nH]c(-c2ccccc2)n1`, the melting point was in the range of 222 to 225 °C.

For `Nc1nc(=O)n(CC2CCCO2)cc1F` (centres undefined), the melting point fell in the range of 168 to 170 °C.

For the molecule `CCn1nc(C2CC2)c(C(=O)O)c1Cc1ccc(-c2ccccc2-c2nnn[nH]2)cc1`, the melting point is 227 to 229 °C.

In the case of `CCOC(=O)c1cnc2c3cc(NC(=O)C(C)C(C)CC)ccc3c(C)cn2c1=O` (centres undefined), the melting point lay within 216 to 218 °C.

In turn, `CCN1CCN(C(=O)NC(C(=O)O)c2cc(OC(C)=O)c(OC(C)=O)cc2F)C(=O)C1=O` (centres undefined) returned a melting point of 177 to 179 °C.

`COC(=O)C(Cc1cccc(OCC(=O)O)c1)c1nc(-c2ccccc2)c(-c2ccccc2)o1` (centres undefined) yielded a melting point of 122 to 127 °C.

With `Nc1sc2c(c1C(=O)c1ccc(Cl)cc1)CCC(O)C2` (centres undefined), the melting point lay in the range of 176 to 177 °C.

As for `CN1CCN(c2cc3nc(C(C)(C)C)sc3cc2NC(=S)N2CCCCC2)CC1`, the melting point lay within 202 to 206 °C.

`COC(=O)CCc1c(C=O)ccc2c1CCC(NS(=O)(=O)c1ccc(Cl)cc1)C2` (centres undefined) displayed a melting point of 110 °C.

Take `CON1CCC(C#N)(N(O)C(=O)Cc2cc(C)ccc2C)CC1`: the melting point was in the range of 153 to 156 °C.

On to `COc1ccc([C@@H]2CC(=O)N3C(=O)CC[C@H]23)cc1` (relative stereo), for which the melting point is 125 to 127 °C.

In the case of `O=c1[nH]c2ccc(C(c3ccc(Cl)cc3)n3ccnc3-c3ccccc3)cc2c(Oc2cccc(Cl)c2)c1CO` (centres undefined), the melting point worked out at 246 °C.

`CCOC(=O)c1[nH]cc(-c2ccc(F)cc2)c1-c1ccccc1`: the melting point was 145 to 146 °C.

As for `CC(C)c1cccc(C(C)C)c1NC(=O)CNC(c1ccccc1)c1ccccn1` (centres undefined), the melting point lay in the range of 135 to 136 °C.

Molecule `CCCCc1[nH]c2ccc([N+](=O)[O-])cc2c1C(=O)c1ccc(O)cc1` returned a melting point of 230 °C.

Consider `CCOC(=O)c1c(Cl)nc2cc(OC)c(OC)cc2c1-c1ccc(OC)c(OC)c1`, for which the melting point was in the range of 168 to 169 °C.

For the molecule `COC(=O)c1cc(C(=O)NC2CCOCC2)c2cc(Cc3ccc(F)cc3)cnc2c1O`, the melting point lay in the range of 246 to 247 °C.

As to `COc1cc2c(cc1OC)C(=O)C(=Cc1ccc(O)cc1)CC2`, the melting point lay within 197 to 199 °C.

In turn, `O=[N+]([O-])c1cccc(SC(CCl)S(=O)(=O)c2cccc([N+](=O)[O-])c2)c1` (centres undefined) yielded a melting point of 98 to 110 °C.

`N#CCCCOc1ccc(C(=O)O)cc1`: the melting point was in the range of 193 to 194 °C.

Molecule `CC(=O)OCCCn1nc(-c2cc(C(C)(C)C)c(O)c(C(C)(C)C)c2)c2cccnc21` displayed a melting point of 75 to 77 °C.

With `O=C(CN1C(=O)C(NC(=O)c2cc3ccccc3[nH]2)C(c2ccccc2)Sc2ccccc21)NCCc1ccccc1` (centres undefined), the melting point is 157 to 163 °C.

As to `COC(C)(CCCCC(C)(C)O)c1cccc(C=Cc2cc(O)cc(O)c2)c1` (centres undefined), the melting point lay in the range of 65 to 75 °C.

Take `CC(Cc1c[nH]c2ccccc12)(NC(=O)OC1C2CC3CC(C2)CC1C3)C(=O)NCCc1ccccn1` (centres undefined): the melting point is 89 to 91 °C.

With `C=C(C)Cn1c(=O)c2ccccc2n1C(=O)OCC`, the melting point is 48 to 50 °C.

Molecule `Cc1ccc(-c2ccc(S(C)(=O)=O)cc2)n1-c1ccc(-c2cccs2)cc1` had a melting point of 185 to 186 °C.

The molecule `Cc1cc(C)cc(C(=O)N2CCN(C(=O)CNC3CCN(CCCc4ccccc4)CC3)C(c3ccc(Cl)c(Cl)c3)C2)c1` (racemic) came in with a melting point of 52 to 54 °C.

Molecule `Cc1cc(=O)[nH]c2cc(O)cc(O)c12` displayed a melting point above 300 °C.

The molecule `O=C1C(=O)N(CCl)c2ccccc21` yielded a melting point of 121 to 123 °C.

`CCOC(=O)c1cc2c(ccc3nc(O)c(O)nc32)s1`: the melting point stood at 357 °C.

Regarding `Cn1c(C(F)(F)F)cc(=O)n(-c2ccc(Cl)c(CO)c2)c1=O`, the melting point lay in the range of 192 to 194 °C.

The molecule `CCCc1nc(Cl)c(C=O)n1Cc1ccc(-c2ccccc2-c2nnn[nH]2)cc1` displayed a melting point of 165 to 167 °C.

Turning to `O=C(Nc1ccc(C(=O)N(CCN2CCC(C(=O)c3ccc(F)cc3)CC2)c2cccnc2)cc1)c1ccccc1`, the melting point fell in the range of 162 to 166 °C.

Regarding `C[C@H](CO)NN1c2[nH]c(=O)cnc2C=NC1SCc1cccc(C(F)(F)F)c1F` (some centres undefined), the melting point was in the range of 217 to 219 °C.

Consider `CCOC(=O)C(C(=O)OCC)C(N)c1ccc([N+](=O)[O-])cc1C(N)C(C(=O)OCC)C(=O)OCC` (centres undefined), for which the melting point lay in the range of 148 to 151 °C.

In turn, `Cc1nc2n(c(=O)c1CCN1CCN(c3noc4cc(F)ccc34)CC1)CCS2` yielded a melting point of 193 °C.

As for `C=CCNC(=O)C1=C(C(=O)Nc2ccc(Br)cc2F)CCCC1`, the melting point lay in the range of 167 to 169 °C.

`CCCNS(=O)(=O)c1c(C)cc(C)cc1C` showed a melting point of 53 to 54 °C.

Turning to `CN1C(=O)CN=C(c2cccc(Cl)c2)c2cc(C(=O)c3ccc(Cl)cc3)ccc21`, the melting point came out at 176 °C.

`Nc1cc(Br)cc(Br)c1O` gave a melting point of 175 to 176 °C.

Molecule `Cc1ccc(-c2ccccc2C(=O)O)cc1C(=O)NCC12CC3CC(CC(C3)C1)C2` registered a melting point of 85 to 92 °C.

Consider `CCC(C)OC(=O)C(C(=O)Nc1nc(C)cs1)=C1SCS1` (centres undefined), for which the melting point is 153 to 154 °C.

With `CCNCC1CCN(c2c(F)cc3c(=O)c(C(=O)O)cn(C4CC4)c3c2F)C1` (centres undefined), the melting point lay in the range of 256 to 258 °C.

As for `CCOC(=O)CCN1CCN(C2=Nc3ccccc3Cc3ccccc32)CC1`, the melting point was in the range of 133 to 134 °C.

In the case of `Cc1csc(-c2ccc3nnn(Cc4ccc5ncccc5c4)c3n2)c1`, the melting point lay within 153 to 156 °C.

In turn, `CCCCc1nc2c(N)nc3ccccc3c2n1CCCCC(=O)N1CCOCC1` displayed a melting point of 141 to 143 °C.

In turn, `CCCCOC(=O)c1ccc(CN2CCCN3CCCC32)cc1` (centres undefined) displayed a melting point of 64 to 67 °C.

`CNC(=O)c1ccccc1S(=O)(=O)Cc1c(O[C@H](Cn2ccnc2)c2ccccc2)ccc2c1CCCC2=O`: the melting point was in the range of 249 to 251 °C.

As for `Cc1cn(CCCC(=O)O)c2ccccc12`, the melting point was 82 to 84 °C.

In the case of `COC=C(C(=O)OC)c1ccccc1CON=C(C)C(=NOC)c1ccc(CCc2ccc(Cl)cc2Cl)cc1`, the melting point fell in the range of 112 to 114 °C.
